ChEMBL document CHEMBL1201862, “PubChem BioAssay data set” (2004)
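Each compound was tested at five concentrations against cells in 96-well plates for 48 hours. Abbreviation: GI50, concentration required for 50% inhibition of growth.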 Active and inactive are the calls of the source. No stated cut-off is given here; in the data, active = GI50 up to about 1.1 µM and inactive = higher.

How the values were obtained:
Test in all cases: DTP human tumour cell line panel, 48 h
OVCAR-4 = system: OVCAR-4
Hs-578T = system: Hs-578T
HCT-15 = system: HCT-15
KM12 = system: KM12
CAKI-1 = system: CAKI-1
NCI-H226 = system: NCI-H226
ACHN = system: ACHN
EKVX = system: EKVX
HL-60 = system: HL-60
HT-29 = system: HT-29
PC-3 = system: PC-3
SNB-75 = system: SNB-75
SNB-19 = system: SNB-19
LOX IMVI = system: LOX IMVI
SN12C = system: SN12C
SK-MEL-5 = system: SK-MEL-5
SF-295 = system: SF-295
OVCAR-8 = system: OVCAR-8
BT-549 = system: BT-549

Row | Structure (SMILES) | GI50 (OVCAR-4) | GI50 (Hs-578T) | GI50 (HCT-15) | GI50 (KM12) | GI50 (CAKI-1) | GI50 (NCI-H226) | GI50 (ACHN) | GI50 (EKVX) | GI50 (HL-60) | GI50 (HT-29) | GI50 (PC-3) | GI50 (SNB-75) | GI50 (SNB-19) | GI50 (LOX IMVI) | GI50 (SN12C) | GI50 (SK-MEL-5) | GI50 (SF-295) | GI50 (OVCAR-8) | GI50 (BT-549)
1 | CCn1c2ccccc2c2nnc(NCCCO)nc21 | > 100 µM (inactive) | 50.2 µM (inactive) | > 100 µM | > 100 µM (inactive) | > 100 µM (inactive) | > 100 µM (inactive) | > 100 µM (inactive) | 28 µM (inactive) | > 100 µM (inactive) | > 100 µM (inactive) | > 100 µM (inactive) | 44.1 µM (inactive) | > 100 µM (inactive) | > 100 µM (inactive) | > 100 µM (inactive) | 94.4 µM (inactive) | > 100 µM (inactive) | > 100 µM (inactive) | > 100 µM (inactive)
2 | CC(=O)NC1C(O)C(O)C(CO)OC1n1ncc(=O)[nH]c1=O (stereo not drawn) | > 100 µM (inactive) | > 100 µM (inactive) | > 100 µM | > 100 µM (inactive) | > 100 µM (inactive) | > 100 µM (inactive) | > 100 µM (inactive) | > 100 µM (inactive) | > 100 µM (inactive) | > 100 µM (inactive) | > 100 µM (inactive) | > 100 µM (inactive) | > 100 µM (inactive) | > 100 µM (inactive) | > 100 µM (inactive) | > 100 µM (inactive) | > 100 µM (inactive) | > 100 µM (inactive) | > 100 µM (inactive)
3 | c1cc(-c2csc(-c3ccsc3)c2)cs1 | > 100 µM (inactive) | > 100 µM (inactive) | > 100 µM | 63.4 µM (inactive) | > 100 µM (inactive) | 13.5 µM (inactive) | > 100 µM (inactive) | > 100 µM (inactive) | > 100 µM (inactive) | > 100 µM (inactive) | 58.9 µM (inactive) | > 100 µM (inactive) | 53.1 µM (inactive) | > 100 µM (inactive) | > 100 µM (inactive) | > 100 µM (inactive) | > 100 µM (inactive) | > 100 µM (inactive) | > 100 µM (inactive)
4 | CCOC(=O)Cc1ccc(Nc2nc3ccccc3nc2C(=O)OCC)cc1 | 77.1 µM (inactive) | 34.5 µM (inactive) | > 100 µM | > 100 µM (inactive) | 83.6 µM (inactive) | 4.8 µM (inactive) | 53.5 µM (inactive) | 38.4 µM (inactive) | > 100 µM (inactive) | > 100 µM (inactive) | 62.5 µM (inactive) | 17.9 µM (inactive) | 11.2 µM (inactive) | > 100 µM (inactive) | > 100 µM (inactive) | 46.1 µM (inactive) | 32.9 µM (inactive) | 56.1 µM (inactive) | 26.2 µM (inactive)
5 | COc1ccccc1NC(=O)CC(=O)NN | > 100 µM (inactive) | > 100 µM (inactive) | > 100 µM | > 100 µM (inactive) | > 100 µM (inactive) | > 100 µM (inactive) | > 100 µM (inactive) | > 100 µM (inactive) | > 100 µM (inactive) | > 100 µM (inactive) | > 100 µM (inactive) | > 100 µM (inactive) | > 100 µM (inactive) | > 100 µM (inactive) | > 100 µM (inactive) | > 100 µM (inactive) | > 100 µM (inactive) | > 100 µM (inactive) | > 100 µM (inactive)
6 | Nc1nc(N)c2c3c(cnc2n1)CC(c1ccccc1)CC3 (stereo not drawn) | 14.3 µM (inactive) | 30.2 µM (inactive) | 4.04 µM | 23.9 µM (inactive) | 28.1 µM (inactive) | 93.1 µM (inactive) | 5 µM (inactive) | 11.2 µM (inactive) | 6.43 µM (inactive) | 5.66 µM (inactive) | 21.9 µM (inactive) | 16.4 µM (inactive) | 13.6 µM (inactive) | 1.71 µM (inactive) | 17.3 µM (inactive) | 1.01 µM (active) | 10.1 µM (inactive) | 7.16 µM (inactive) | 17 µM (inactive)
7 | N#C/C(N)=C(C#N)/N=C/Nc1ccccc1N | > 100 µM (inactive) | > 100 µM (inactive) | > 100 µM | > 100 µM (inactive) | > 100 µM (inactive) | > 100 µM (inactive) | > 100 µM (inactive) | > 100 µM (inactive) | > 100 µM (inactive) | > 100 µM (inactive) | > 100 µM (inactive) | > 100 µM (inactive) | > 100 µM (inactive) | > 100 µM (inactive) | > 100 µM (inactive) | > 100 µM (inactive) | > 100 µM (inactive) | > 100 µM (inactive) | > 100 µM (inactive)
